Values quoted from earlier work, collected in CN104546722A, “米铂脂质体和制法” (priority 2015, dated 2015).
Where two headings read alike, the source gives them in different places.

What was measured:
[1] = test system: hepatocellular carcinoma (肝细胞癌)
[2] = after administration
[3] = test system: rodent liver cancer cell line AH109A (鼠肝癌细胞株AH109A)
[4] = test system: hepatocellular carcinoma patients (肝细胞癌患者); settings: human, in vivo
[5] = test system: hepatocellular carcinoma patients (肝细胞癌患者); settings: human, in vivo; remark: listed apart in the source
[6] = not given; remark: listed apart in the source
[7] = test system: human liver cancer cell line Li-7 (人肝癌细胞株Li-7)
[8] = test system: hepatocellular carcinoma patients (肝细胞癌患者)
[9] = test system: liver cancer patients (肝癌患者)

## CCCCCCCCCCCCCC(=O)[O-].CCCCCCCCCCCCCC(=O)[O-].N[C@@H]1CCCC[C@H]1N.O.[Pt+2] [米铂一水合物, (SP-4-2)-[(1R,2R)-1,2环己二氨-N,N′]二(十四酸-O)合铂一水合物]
[1]; almost all, after administration
  time to disappearance of adverse reactions: 4~6 weeks
[1]; hepatocellular carcinoma
  CR rate (therapeutic effect, TE): 60%
[2]
  total platinum concentration in blood: 极低,可长时间维持
[3]; 20 mg/mL in suspension
  tumour cell proliferation rate: 明显降低
[3]; single dose of suspension
  antitumour effect: 剂量相关地抗肿瘤作用
[3]; suspension
  inhibition of cancer cell proliferation: 以剂量相关方式抑制癌细胞增殖
After first administration
  total platinum mass concentration in blood (mean): 9.6 ng/mL
After second administration
  total platinum mass concentration in blood (mean): 12.9 ng/mL
[4]
  1-year survival rate: 90.1%
  2-year survival rate: 75.9%
  3-year survival rate: 58.4%
  efficacy compared with 净司他丁斯酯: 疗效相当
  safety compared with 净司他丁斯酯: 更安全
[5]
  1-year survival rate: 63.6%
  2-year survival rate: 38.2%
[6]; about 1 year after administration
  Cmax, reduced to: ~17%
[6]; after administration, (ng)
  total platinum concentration in blood (level): 极低,属微量且维持时间长
[7]; 20 mg/mL in suspension
  tumour cell proliferation rate: 明显降低
[7]; single dose of suspension
  antitumour effect: 剂量相关地抗肿瘤作用
[7]; suspension
  inhibition of cancer cell proliferation: 以剂量相关方式抑制癌细胞增殖

## CCCCCCCCCCCCCC(=O)[O-].CCCCCCCCCCCCCC(=O)[O-].N[C@@H]1CCCC[C@H]1N.[Pt+2] [米铂, 顺-[(1R,2R)-1,2-环己二胺-N,N’]双十四酰氧基合铂]
[8]; 22/83 patients
  TEV (disappearance of mass or 100% tumour necrosis rate): 26.5%
[8]; from administration
  hepatic vascular injury: 未发生肝血管损伤
[8]; human, in vivo
  2-year survival rate: 75.9%
  3-year survival rate: 58.4%
[9]; 9/16 patients
  CR rate: 56%
[9]; 16 patients
  tolerability: 耐受性好
